Key:
[1] = molecular target: Prostaglandin G/H synthase 1 (Homo sapiens, UniProt P23219); assay: biochemical; format: tissue-based, Platelet; settings: platelet;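 further: inhibition of COX-1 enzyme activity, with arachidonic acid supplied as substrate; in other assays of this panel Not Active means under 50% inhibition at 10 µM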
[2] = DRUGMATRIX: Glutamate, AMPA radioligand binding (ligand: [3H] AMPA); format: cell membranes, Rattus norvegicus, Wistar, Cerebral cortex, Membrane; settings: Not Active = under 50% inhibition at 10 µM
Histamine H2 receptor = Histamine H2 receptor (Homo sapiens, UniProt P25021); format: cell membranes, CHO-K1, Membrane; further: in other assays of this panel Not Active means under 50% inhibition at 10 µM
[3] = DRUGMATRIX: Nicotinic Acetylcholine radioligand binding (ligand: [125I] Epibatidine); format: cell membranes, Membrane; settings: imr-32; Not Active = under 50% inhibition at 10 µM
Interstitial collagenase = molecular target: T1, Interstitial collagenase (Homo sapiens, UniProt P03956); assay: biochemical; format: tissue-based, Rheumatoid synovial fibroblasts;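 further: MMP-1 enzyme inhibition assay using a peptide substrate; in other assays of this panel Not Active means under 50% inhibition at 10 µM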
T1 sequence (P03956 whole entry): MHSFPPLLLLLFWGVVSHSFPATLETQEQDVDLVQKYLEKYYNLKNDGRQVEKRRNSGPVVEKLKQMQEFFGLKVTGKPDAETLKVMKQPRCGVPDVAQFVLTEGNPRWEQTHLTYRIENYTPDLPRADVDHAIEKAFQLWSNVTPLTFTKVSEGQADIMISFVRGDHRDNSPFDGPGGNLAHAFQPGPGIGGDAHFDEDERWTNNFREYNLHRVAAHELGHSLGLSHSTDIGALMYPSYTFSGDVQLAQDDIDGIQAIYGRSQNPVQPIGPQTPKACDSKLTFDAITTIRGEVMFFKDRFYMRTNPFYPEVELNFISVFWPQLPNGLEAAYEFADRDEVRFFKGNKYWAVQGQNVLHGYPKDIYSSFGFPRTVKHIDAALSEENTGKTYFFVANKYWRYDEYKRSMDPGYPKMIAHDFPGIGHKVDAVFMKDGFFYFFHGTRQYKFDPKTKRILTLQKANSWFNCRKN

Adenosine receptor A3 = molecular target: T2, Adenosine receptor A3 (Homo sapiens, UniProt P0DMS8); format: cell membranes, CHO-K1, Membrane; settings: cho-k1;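 further: radioligand binding assay with AB-MECA serving as the labeled ligand; in other assays of this panel Not Active means under 50% inhibition at 10 µM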
T2 sequence (P0DMS8 whole entry): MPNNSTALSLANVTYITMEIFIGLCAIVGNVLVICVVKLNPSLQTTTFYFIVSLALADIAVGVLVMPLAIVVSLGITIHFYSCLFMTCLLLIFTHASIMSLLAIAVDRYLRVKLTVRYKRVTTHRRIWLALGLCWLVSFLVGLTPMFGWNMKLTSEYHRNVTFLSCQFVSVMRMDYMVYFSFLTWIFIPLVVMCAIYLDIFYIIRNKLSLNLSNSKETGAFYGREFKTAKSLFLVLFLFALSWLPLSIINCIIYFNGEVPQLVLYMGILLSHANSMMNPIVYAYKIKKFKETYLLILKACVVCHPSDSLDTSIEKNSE

Chain of Histamine H2 receptor (P25021 whole entry): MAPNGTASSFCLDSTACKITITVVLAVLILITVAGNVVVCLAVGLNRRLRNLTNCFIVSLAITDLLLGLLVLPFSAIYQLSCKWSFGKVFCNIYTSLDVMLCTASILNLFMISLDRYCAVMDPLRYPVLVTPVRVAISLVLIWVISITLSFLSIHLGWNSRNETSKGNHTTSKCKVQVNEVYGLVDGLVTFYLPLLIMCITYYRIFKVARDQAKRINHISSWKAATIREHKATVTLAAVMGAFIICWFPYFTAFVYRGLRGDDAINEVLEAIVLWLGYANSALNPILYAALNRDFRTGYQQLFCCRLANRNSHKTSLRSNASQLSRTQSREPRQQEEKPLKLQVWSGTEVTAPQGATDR
Chain of Prostaglandin G/H synthase 1 (P23219 whole entry): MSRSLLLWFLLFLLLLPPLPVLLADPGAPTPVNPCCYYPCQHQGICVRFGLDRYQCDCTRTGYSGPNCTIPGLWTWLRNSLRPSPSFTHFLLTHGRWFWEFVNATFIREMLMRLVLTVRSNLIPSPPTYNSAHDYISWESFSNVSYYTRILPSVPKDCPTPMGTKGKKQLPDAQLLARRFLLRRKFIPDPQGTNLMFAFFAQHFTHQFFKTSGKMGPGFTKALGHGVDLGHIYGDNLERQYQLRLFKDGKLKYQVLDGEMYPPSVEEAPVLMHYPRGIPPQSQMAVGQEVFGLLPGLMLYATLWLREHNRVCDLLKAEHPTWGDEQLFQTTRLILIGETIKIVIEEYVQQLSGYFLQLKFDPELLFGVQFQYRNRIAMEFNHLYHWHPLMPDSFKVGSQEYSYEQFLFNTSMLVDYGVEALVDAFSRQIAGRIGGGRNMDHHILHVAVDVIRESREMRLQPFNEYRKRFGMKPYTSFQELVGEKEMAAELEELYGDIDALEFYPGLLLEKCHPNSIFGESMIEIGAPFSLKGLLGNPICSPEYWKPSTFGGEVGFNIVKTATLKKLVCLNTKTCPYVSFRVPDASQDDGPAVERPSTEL

| SMILES | IC50 [1] | IC50 [2] | Ki [2] | IC50 (Histamine H2 receptor; cho-k1) | IC50 [3] | Ki [3] | IC50 (Interstitial collagenase) | IC50 (Adenosine receptor A3) | IC50 (Histamine H2 receptor; read-out: IC50) | Ki (Histamine H2 receptor; read-out: Ki) |
| --- | --- | --- | --- | --- | --- | --- | --- | --- | --- | --- |
| C[C@]12CCC(=O)C=C1CC[C@@H]1[C@@H]2CC[C@@]2(C)[C@H]1CC[C@]2(C)O [METHYLTESTOSTERONE] | Not Active | Not Active | Not Active | Not Active | Not Active | Not Active | Not Active | Not Active |  |  |
| CC(=O)O[C@@]12CO[C@@H]1C[C@H](O)[C@@]1(C)C(=O)[C@H](O)C3=C(C)[C@@H](OC(=O)[C@H](O)[C@@H](NC(=O)OC(C)(C)C)c4ccccc4)C[C@@](O)([C@@H](OC(=O)c4ccccc4)[C@H]21)C3(C)C.O.O.O [DOCETAXEL] | Not Active | Not Active | Not Active | Not Active | Not Active | Not Active | Not Active | Not Active |  |  |
| Nc1ncn([C@@H]2O[C@H](CO)[C@@H](O)[C@H]2O)c(=O)n1 [AZACITIDINE] | Not Active | Not Active | Not Active | Not Active | Not Active | Not Active | Not Active | Not Active |  |  |
| C[C@](N)(Cc1ccc(O)c(O)c1)C(=O)O [METHYLDOPA] | Not Active | Not Active | Not Active | Not Active | Not Active | Not Active | Not Active | Not Active |  |  |
| O=C(CCCN1CC=C(n2c(=O)[nH]c3ccccc32)CC1)c1ccc(F)cc1 [DROPERIDOL] | Not Active | Not Active | Not Active | Not Active | Not Active | Not Active | Not Active | Not Active |  |  |
| CN(C)CCCN1c2ccccc2Sc2ccccc21 [PROMAZINE] | Not Active | Not Active | Not Active |  | Not Active | Not Active | Not Active | Not Active | 2860 nM | 2810 nM |
| CN(C)c1nc(N(C)C)nc(N(C)C)n1 [ALTRETAMINE] | Not Active | Not Active | Not Active | Not Active | Not Active | Not Active | Not Active | Not Active |  |  |
| CC1CC(OC(=O)C(O)c2ccccc2)CC(C)(C)C1 (configuration not stated) [CYCLANDELATE] | Not Active | Not Active | Not Active | Not Active | Not Active | Not Active | Not Active | Not Active |  |  |
| CCCN1C[C@H](CSC)C[C@@H]2c3cccc4[nH]cc(c34)C[C@H]21 [PERGOLIDE] | Not Active | Not Active | Not Active | Not Active | Not Active | Not Active | Not Active | Not Active |  |  |
| c1ccc2c(c1)c1cccc3ccc4cccc2c4c31 [BENZO[E]PYRENE] | Not Active | Not Active | Not Active | Not Active | Not Active | Not Active | Not Active | Not Active |  |  |
| CC(C)[C@@]1(NC(=O)[C@@H]2C[C@@H]3c4cccc5[nH]cc(c45)C[C@H]3N(C)C2)O[C@@]2(O)[C@@H]3CCCN3C(=O)[C@H](Cc3ccccc3)N2C1=O.CS(=O)(=O)O [DIHYDROERGOCRISTINE MESYLATE] | Not Active | Not Active | Not Active | Not Active | Not Active | Not Active | Not Active | Not Active |  |  |
| CC[C@@]1(O)C[C@H](O[C@H]2C[C@H](N(C)C)[C@H](O[C@H]3C[C@H](O)[C@H](O[C@H]4CCC(=O)[C@H](C)O4)[C@H](C)O3)[C@H](C)O2)c2c(cc3c(c2O)C(=O)c2c(O)cccc2C3=O)[C@H]1C(=O)OC [ACLARUBICIN] | Not Active | Not Active | Not Active | Not Active | Not Active | Not Active | Not Active | Not Active |  |  |

Source: ChEMBL document CHEMBL1909046, “DrugMatrix in vitro pharmacology data”
